Measured values as given in article PMC7241567 (Journal of Enzyme Inhibition and Medicinal Chemistry, 2020).
Where a chain is given by its changes, count along the chain named. Entries after “also recorded” stand apart in the source; their conditions may differ.

Experiments:
Format in all cases: biochemical
c-MET = target: T1, c-MET (Homo sapiens, UniProt P08581); assay: Reaction Biology Kinase HotSpot radiometric kinase assay
T1 construct: purchased Reaction Biology Corp. (Kinase HotSpot service)
T1 sequence (P08581 25-1390): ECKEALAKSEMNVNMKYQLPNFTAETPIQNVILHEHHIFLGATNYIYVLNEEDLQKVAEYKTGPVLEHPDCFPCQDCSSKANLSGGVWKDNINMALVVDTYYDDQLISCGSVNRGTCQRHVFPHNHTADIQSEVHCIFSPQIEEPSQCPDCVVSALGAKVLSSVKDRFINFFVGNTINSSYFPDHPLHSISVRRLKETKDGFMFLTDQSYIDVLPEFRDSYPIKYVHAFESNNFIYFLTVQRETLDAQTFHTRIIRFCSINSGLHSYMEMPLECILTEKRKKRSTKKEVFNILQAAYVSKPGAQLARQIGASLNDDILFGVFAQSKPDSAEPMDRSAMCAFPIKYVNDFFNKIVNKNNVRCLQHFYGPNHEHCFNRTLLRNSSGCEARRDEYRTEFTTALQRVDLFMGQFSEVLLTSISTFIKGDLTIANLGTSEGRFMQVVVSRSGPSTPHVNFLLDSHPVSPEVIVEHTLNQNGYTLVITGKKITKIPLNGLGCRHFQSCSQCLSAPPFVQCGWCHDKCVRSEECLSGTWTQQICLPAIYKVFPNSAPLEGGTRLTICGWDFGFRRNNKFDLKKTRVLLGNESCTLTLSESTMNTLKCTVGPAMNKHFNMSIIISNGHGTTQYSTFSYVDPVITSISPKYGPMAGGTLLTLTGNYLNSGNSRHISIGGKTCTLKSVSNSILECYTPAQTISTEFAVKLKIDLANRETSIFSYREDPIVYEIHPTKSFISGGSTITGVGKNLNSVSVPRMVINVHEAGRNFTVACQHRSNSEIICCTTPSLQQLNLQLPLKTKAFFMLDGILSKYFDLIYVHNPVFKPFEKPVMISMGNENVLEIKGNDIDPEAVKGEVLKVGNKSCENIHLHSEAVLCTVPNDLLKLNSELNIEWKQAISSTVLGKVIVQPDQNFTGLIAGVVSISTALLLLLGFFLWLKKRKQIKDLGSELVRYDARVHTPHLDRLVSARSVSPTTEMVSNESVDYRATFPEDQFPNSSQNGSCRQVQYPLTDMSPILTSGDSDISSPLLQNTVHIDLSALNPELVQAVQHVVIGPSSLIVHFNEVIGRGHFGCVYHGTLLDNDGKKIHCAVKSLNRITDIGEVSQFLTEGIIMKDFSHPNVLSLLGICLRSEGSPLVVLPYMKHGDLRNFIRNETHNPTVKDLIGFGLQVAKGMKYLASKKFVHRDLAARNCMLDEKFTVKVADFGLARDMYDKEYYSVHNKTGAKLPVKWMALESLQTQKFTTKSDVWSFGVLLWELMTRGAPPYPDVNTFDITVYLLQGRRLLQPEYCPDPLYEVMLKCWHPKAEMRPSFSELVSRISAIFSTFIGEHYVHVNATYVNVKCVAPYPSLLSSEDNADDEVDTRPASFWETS

FLT3 = target: T2, FLT3 (Homo sapiens, UniProt P36888); assay: as above
T2 construct: purchased Reaction Biology Corp. (Kinase HotSpot service)
T2 sequence (P36888 27-993): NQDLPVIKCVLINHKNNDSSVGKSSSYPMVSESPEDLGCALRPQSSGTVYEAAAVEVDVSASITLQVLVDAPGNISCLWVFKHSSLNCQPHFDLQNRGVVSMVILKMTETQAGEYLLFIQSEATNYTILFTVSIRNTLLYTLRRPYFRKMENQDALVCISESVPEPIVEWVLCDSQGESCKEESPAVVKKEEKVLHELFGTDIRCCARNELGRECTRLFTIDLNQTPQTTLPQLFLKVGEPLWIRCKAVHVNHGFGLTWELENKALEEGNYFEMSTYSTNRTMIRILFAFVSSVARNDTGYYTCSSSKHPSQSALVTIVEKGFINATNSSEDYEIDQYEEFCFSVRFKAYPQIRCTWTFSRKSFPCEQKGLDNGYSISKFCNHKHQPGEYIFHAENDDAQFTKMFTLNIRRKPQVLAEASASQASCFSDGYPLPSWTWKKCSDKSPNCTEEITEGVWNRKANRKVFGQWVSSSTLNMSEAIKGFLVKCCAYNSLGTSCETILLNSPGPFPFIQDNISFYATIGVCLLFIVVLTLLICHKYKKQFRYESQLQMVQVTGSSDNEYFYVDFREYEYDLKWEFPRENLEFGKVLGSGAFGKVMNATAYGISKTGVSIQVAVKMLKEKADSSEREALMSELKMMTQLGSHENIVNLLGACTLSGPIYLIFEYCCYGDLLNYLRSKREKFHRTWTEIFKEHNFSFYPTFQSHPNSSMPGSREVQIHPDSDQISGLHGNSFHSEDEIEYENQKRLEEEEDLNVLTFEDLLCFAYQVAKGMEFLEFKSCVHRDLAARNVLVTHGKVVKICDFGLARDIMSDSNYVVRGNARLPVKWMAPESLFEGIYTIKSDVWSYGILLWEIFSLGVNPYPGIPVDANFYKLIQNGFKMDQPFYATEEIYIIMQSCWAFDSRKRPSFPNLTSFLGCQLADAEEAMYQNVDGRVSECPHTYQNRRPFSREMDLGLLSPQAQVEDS

CDK4/cyclin D1 = target: T3, CDK4/cyclin D1 (Homo sapiens, UniProt P11802); assay: as above
T3 construct: purchased Reaction Biology Corp. (Kinase HotSpot service)
T3 sequence (P11802 whole entry): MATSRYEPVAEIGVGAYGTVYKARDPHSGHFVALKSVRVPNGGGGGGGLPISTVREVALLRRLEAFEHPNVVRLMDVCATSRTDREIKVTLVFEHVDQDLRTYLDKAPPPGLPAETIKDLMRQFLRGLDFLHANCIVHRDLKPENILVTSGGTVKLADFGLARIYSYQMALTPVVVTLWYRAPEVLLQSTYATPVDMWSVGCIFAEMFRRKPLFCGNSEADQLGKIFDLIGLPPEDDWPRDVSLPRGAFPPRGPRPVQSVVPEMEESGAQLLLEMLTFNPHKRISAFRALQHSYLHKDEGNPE
T3 sequence (P24385 whole entry partner): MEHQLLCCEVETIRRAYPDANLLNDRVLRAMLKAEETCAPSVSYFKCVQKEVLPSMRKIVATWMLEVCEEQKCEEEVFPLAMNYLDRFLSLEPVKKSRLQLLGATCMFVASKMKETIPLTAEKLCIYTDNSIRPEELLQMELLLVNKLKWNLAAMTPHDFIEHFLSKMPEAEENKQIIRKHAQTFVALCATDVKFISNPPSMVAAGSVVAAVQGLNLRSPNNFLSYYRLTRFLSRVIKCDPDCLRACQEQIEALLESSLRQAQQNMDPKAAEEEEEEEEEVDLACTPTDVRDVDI

LCK = target: T4, LCK (Homo sapiens, UniProt P06239); assay: as above
T4 construct: purchased Reaction Biology Corp. (Kinase HotSpot service)
T4 sequence (P06239 whole entry): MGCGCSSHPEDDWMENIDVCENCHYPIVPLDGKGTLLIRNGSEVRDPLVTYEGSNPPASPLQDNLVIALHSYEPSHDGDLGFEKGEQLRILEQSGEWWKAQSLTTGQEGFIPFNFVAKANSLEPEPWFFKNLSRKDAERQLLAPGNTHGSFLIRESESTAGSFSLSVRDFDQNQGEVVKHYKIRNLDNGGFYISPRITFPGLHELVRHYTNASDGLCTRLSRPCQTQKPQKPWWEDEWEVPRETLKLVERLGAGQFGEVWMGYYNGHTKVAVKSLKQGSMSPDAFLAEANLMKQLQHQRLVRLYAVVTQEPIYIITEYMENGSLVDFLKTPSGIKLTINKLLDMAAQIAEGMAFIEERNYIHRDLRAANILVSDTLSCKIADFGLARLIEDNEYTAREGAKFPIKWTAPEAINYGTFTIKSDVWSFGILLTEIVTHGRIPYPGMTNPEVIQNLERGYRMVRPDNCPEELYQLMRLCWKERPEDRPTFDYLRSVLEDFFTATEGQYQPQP

RON/MST1R = target: T5, RON/MST1R (Homo sapiens, UniProt Q04912); assay: as above
T5 construct: purchased Reaction Biology Corp. (Kinase HotSpot service)

AXL (R499C) = target: T6, AXL (R499C) (Homo sapiens, UniProt P30530, R499C); assay: as above
T6 construct: purchased Reaction Biology Corp. (Kinase HotSpot service)
T6 sequence (P30530 26-894 R499C): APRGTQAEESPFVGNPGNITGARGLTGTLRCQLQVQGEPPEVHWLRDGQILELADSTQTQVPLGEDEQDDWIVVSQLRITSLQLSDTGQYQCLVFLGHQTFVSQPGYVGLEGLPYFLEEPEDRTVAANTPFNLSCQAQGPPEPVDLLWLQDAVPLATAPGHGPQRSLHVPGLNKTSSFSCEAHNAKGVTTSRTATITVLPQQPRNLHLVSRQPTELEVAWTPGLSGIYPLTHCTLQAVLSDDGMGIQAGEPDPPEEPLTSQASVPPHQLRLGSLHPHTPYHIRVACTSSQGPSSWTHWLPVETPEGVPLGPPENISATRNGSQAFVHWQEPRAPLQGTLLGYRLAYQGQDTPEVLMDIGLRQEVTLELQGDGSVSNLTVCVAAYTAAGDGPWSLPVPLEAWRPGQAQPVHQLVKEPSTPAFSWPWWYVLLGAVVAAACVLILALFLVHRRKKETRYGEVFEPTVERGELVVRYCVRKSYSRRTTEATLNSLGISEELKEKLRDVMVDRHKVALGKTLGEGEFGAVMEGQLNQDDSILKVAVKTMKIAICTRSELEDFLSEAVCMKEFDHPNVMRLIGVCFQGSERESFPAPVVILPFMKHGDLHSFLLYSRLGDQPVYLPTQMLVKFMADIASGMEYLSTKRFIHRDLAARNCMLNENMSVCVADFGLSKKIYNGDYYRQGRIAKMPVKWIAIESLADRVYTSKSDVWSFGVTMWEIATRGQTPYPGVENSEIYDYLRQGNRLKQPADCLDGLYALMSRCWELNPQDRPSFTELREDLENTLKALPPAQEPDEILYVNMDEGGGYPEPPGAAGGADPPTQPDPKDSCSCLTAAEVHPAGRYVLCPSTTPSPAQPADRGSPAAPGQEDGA

GSK3b = target: T7, GSK3b (Homo sapiens, UniProt P49841); assay: as above
T7 construct: purchased Reaction Biology Corp. (Kinase HotSpot service)
T7 sequence (P49841 whole entry): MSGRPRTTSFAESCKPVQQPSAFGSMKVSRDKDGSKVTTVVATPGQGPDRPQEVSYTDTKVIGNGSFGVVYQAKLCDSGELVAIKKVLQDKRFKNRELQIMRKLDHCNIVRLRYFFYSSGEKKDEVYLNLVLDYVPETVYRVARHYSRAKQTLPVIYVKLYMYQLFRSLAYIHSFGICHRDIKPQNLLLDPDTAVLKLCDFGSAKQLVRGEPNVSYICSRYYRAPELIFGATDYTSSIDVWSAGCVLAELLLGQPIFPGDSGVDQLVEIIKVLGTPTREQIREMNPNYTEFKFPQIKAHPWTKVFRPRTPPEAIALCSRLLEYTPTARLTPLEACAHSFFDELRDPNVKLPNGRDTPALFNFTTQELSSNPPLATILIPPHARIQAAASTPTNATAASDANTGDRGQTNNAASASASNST

FGFR3 = target: T8, FGFR3 (Homo sapiens, UniProt P22607); assay: as above
T8 construct: purchased Reaction Biology Corp. (Kinase HotSpot service)
T8 sequence (P22607 23-806): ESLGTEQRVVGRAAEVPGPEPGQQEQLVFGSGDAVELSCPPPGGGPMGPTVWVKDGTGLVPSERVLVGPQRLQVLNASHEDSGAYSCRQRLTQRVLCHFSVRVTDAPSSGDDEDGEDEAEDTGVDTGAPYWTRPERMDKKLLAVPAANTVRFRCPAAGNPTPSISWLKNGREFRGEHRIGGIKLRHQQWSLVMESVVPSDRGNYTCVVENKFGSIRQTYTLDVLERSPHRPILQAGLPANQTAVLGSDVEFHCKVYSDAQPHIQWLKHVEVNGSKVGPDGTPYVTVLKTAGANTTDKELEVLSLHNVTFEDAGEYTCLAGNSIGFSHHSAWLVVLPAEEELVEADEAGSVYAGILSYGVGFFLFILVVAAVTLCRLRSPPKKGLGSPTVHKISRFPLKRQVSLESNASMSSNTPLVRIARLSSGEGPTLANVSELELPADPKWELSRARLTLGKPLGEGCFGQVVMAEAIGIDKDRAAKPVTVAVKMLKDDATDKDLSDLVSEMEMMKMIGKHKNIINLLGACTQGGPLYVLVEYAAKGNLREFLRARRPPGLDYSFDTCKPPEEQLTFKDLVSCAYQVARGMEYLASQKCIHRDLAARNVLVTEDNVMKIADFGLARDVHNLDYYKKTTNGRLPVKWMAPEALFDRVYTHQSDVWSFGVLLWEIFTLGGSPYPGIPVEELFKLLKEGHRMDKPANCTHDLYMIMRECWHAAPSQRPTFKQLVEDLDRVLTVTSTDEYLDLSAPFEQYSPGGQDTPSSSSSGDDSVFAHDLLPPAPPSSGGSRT

[1] = target: T9, FLT3 (Y591_V592 ins VDFREYEYD) (Homo sapiens, UniProt P36888, INS591VDFREYEYD); assay: Enzymatic activity against FLT3 mutants
T9 construct: purchased Reaction Biology Corp. (Kinase HotSpot service)

PKA = target: T10, PKA (Homo sapiens, UniProt P17612); assay: Reaction Biology Kinase HotSpot radiometric kinase assay
T10 construct: purchased Reaction Biology Corp. (Kinase HotSpot service)

SYK = target: T11, SYK (Homo sapiens, UniProt P43405); assay: as above
T11 construct: purchased Reaction Biology Corp. (Kinase HotSpot service)

FLT3 (D835Y) = target: T12, FLT3 (D835Y) (Homo sapiens, UniProt P36888, D835Y); assay: Enzymatic activity against FLT3 mutants
T12 construct: purchased Reaction Biology Corp. (Kinase HotSpot service)
T12 sequence (P36888 27-993 D835Y): T2 sequence (P36888 27-993) with D809Y

FLT3-ITD = FLT3-ITD (Homo sapiens, UniProt P36888, ITD); assay: Reaction Biology Kinase HotSpot radiometric kinase assay
ABL1 = target: T13, ABL1 (Homo sapiens, UniProt P00519); assay: as above
T13 construct: purchased Reaction Biology Corp. (Kinase HotSpot service)

JNK3 = target: T14, JNK3 (Homo sapiens, UniProt P53779); assay: as above
T14 construct: purchased Reaction Biology Corp. (Kinase HotSpot service)
T14 sequence (P53779 whole entry): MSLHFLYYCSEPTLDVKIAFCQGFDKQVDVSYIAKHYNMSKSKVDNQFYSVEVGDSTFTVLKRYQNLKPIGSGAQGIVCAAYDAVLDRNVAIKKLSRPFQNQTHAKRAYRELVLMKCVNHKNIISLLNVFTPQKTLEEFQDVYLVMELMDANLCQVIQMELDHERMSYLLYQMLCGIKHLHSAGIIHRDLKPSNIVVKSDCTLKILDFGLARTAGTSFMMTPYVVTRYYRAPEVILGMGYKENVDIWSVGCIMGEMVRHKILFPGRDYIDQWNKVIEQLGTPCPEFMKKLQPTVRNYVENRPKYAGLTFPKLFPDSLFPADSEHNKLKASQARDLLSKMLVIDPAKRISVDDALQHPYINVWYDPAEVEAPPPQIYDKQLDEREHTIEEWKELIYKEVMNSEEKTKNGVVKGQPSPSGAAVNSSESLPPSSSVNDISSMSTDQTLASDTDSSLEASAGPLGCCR

Cc1oncc1C(=O)Nc1ccc2cnc(-c3cc(N4CCN(C)CC4)cc(C(F)(F)F)c3)nc2c1 [Compound 7d, 5-methyl-N-(2-(3-(4-methylpiperazin-1-yl)-5-(trifluoromethyl)phenyl)quinazolin-7-yl)isoxazole-4-carboxamide]
inhibition at 10 µM (c-MET): 13.2% | inhibition at 10 µM (FLT3): 96.6% | inhibitory activity towards FLT3 (in words) (FLT3): maintained the activity; also recorded: maintained inhibitory activity | IC50 (FLT3; FLT3 wild type, read-out: IC50 against FLT3): 106 nM | inhibition at 10 µM (CDK4/cyclin D1): 3.01% | inhibition at 10 µM (LCK): 19.7% | inhibition at 10 µM (RON/MST1R): 13.5% | inhibition at 10 µM (AXL (R499C)): 10.1% | inhibition at 10 µM (GSK3b): 8.06% | inhibition at 10 µM (FGFR3): 1% | IC50 [1]: 728 nM | inhibition at 10 µM (PKA): 2.5% | inhibition at 10 µM (SYK): 22.4% | decrease of activity against FLT3-TKD (D835Y) compared to FLT3 wild type (FLT3 (D835Y)): about 2 fold | IC50 (FLT3 (D835Y); FLT3 (D835Y)): 228 nM | IC50 (FLT3 (D835Y); FLT3-TKD (D835Y)): 228 nM | inhibition at 10 µM (FLT3-ITD; FLT3-ITD, 10 µM): 95.2% | IC50 (FLT3-ITD; read-out: IC50 against FLT3-ITD): 301 nM | inhibition at 10 µM (ABL1): 6.46% | inhibition at 10 µM (JNK3): 19.5%
